Measurements as given in patent US9505742B2, “3,4-dihydro-2H-isoquinoline-1-one and 2,3-dihydro-isoindol-1-one compounds” (Hoffmann-La Roche Inc., priority 2013, dated 2016).

How the values were obtained:
[1] = biological target: T1, human CYP11B2 (Homo sapiens, UniProt P19099); assay: G-402 cellular enzyme assay, human CYP11B2 (aldosterone release, HTRF); format: cell-based; conditions: G-402 cells expressing human CYP11B2; 1 μM Deoxycorticosterone
T1 construct: The expression plasmids contains the ORF for either human/cyno CYP11B1 or CYP11B2; expressed in transfected cells
T1 sequence (P19099 25-503): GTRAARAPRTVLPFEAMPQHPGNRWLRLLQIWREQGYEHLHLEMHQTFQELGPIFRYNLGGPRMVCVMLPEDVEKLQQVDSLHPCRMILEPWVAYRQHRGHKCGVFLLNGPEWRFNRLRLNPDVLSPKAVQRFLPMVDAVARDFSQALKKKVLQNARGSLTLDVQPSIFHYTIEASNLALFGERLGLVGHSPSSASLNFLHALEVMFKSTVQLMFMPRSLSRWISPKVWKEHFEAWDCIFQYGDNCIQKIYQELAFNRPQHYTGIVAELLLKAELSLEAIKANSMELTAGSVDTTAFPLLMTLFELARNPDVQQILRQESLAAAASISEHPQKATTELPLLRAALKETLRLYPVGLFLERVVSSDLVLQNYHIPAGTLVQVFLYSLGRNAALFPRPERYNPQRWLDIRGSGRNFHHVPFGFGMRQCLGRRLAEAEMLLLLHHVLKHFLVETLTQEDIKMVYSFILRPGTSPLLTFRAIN
Excerpt: (§1) Herein we identified the use of the G-402 cell line as a host cell to ectopically express (transiently or stably) enzymes of the CYP11 family. Specifically we developed stable G-402 cells expressing ectopically human CYP11B1, human CYP11B2, human CYP11A1, cynmolgus CYP11B1 or cynomolgus CYP11B2 enzyme activity. Importantly the identified cell line G-402 expresses co-factors (adrenodoxin and adrenodoxin reductase) important for the activity of the CYP11 family and no relevant enzyme activity of the CYP11 family (in comparison to H295R cells) was detected in these cells. Therefore the G-402 cell line is uniquely suited as a host cell for the ectopic expression of enzymes from the CYP11 family. G-402 cells can be obtained from ATCC (CRL-1440) and were originally derived from a renal leiomyoblastoma.
(§2) The expression plasmids contains the ORF for either human/cyno CYP11B1 or CYP11B2 under the control of a suitable promoter (CMV-promoter) and a suitable resistance marker (neomycin). Using standard techniques the expression plasmid is transfected into G-402 cells and these cells are then selected for expressing the given resistance markers. Individual cell-clones are then selected and assessed for displaying the desired enzymatic activity using 11-Deoxycorticosterone (Cyp11B2) or 11-Deoxycortisol (Cyp11B) as a substrate.
(§3) G-402 cells expressing CYP11 constructs were established as described above and maintained in McCoy's 5a Medium Modified, ATCC Catalog No. 30-2007 containing 10% FCS and 400 μg/ml G418 (Geneticin) at 37° C. under an atmosphere of 5% CO2/95% air. Cellular enzyme assays were performed in DMEM/F12 medium containing 2.5% charcoal treated FCS and appropriate concentration of substrate (0.3-10 uM 11-Deoxycorticosterone, 11-Deoxycortisol or Corticosterone). For assaying enzymatic activity, cells were plated onto 96 well plates and incubated for 16 h. An aliquot of the supernatant is then transferred and analyzed for the concentration of the expected product (Aldosterone for CYP11B2; Cortisol for CYP11B1). The concentrations of these steroids can be determined using HTRF assays from CisBio analyzing either Aldosterone or Cortisol.
(§4) Inhibition of the release of produced steroids can be used as a measure of the respective enzyme inhibition by test compounds added during the cellular enzyme assay. The dose dependent inhibition of enzymatic activity by a compound is calculated by means of plotting added inhibitor concentrations (x-axes) vs. measured steroid/product level (y-axes). The inhibition is then calculated by fitting the following 4-parameter sigmoidal function (Morgan-Mercer-Flodin (MMF) model) to the raw data points using the least squares method:
(§5) [formula] wherein, A is the maximum y value, B is the EC50 factor determined using XLFit, C is the minimum y value and D is the slope value.
(§6) EC50 values for compounds claimed herein were tested with the G402-based assay system described. Cyp11B2 enzyme activity was tested in presence of 1 μM Deoxycorticosterone and variable amounts of inhibitors; Cyp11B1 enzyme activity was tested in presence of 1 μM Deoxycortisol and variable amounts of inhibitors.

[2] = biological target: T2, human CYP11B1 (Homo sapiens, UniProt P15538); assay: G-402 cellular enzyme assay, human CYP11B1 (cortisol release, HTRF); format: cell-based; conditions: G-402 cells expressing human CYP11B1; 1 μM Deoxycortisol
T2 construct: The expression plasmids contains the ORF for either human/cyno CYP11B1 or CYP11B2; expressed in transfected cells
T2 sequence (P15538 25-503): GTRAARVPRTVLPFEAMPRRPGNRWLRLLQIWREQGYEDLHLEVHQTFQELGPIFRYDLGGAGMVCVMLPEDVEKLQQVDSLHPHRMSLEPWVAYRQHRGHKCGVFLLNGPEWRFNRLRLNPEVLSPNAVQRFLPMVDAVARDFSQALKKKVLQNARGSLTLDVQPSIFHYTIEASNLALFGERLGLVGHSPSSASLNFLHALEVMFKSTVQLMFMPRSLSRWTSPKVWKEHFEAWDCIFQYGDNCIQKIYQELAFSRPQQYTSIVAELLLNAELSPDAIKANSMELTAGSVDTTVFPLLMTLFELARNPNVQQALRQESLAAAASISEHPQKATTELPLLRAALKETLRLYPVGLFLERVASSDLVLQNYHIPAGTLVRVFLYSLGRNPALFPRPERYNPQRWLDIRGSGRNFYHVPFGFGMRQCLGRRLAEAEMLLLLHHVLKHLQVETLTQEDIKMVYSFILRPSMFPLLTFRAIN
Excerpt: as §1, §2, §3, §4, §5, §6

Row | Compound | EC50 [1] [nM] | EC50 [2] [nM]
1 | CCCS(=O)(=O)N1CCC(c2cncc(N3C(=O)c4ccc(Cl)cc4C3(C)C)c2)C1 (single isomer, unassigned; (-)) [Example 9, (−)-5-chloro-3,3-dimethyl-2-[5-[(3S or 3R)-1-propylsulfonylpyrrolidin-3-yl]pyridin-3-yl]isoindol-1-one] | 14 | 800
2 | CC(C)S(=O)(=O)N1CCC(c2cncc(N3C(=O)c4ccc(Cl)cc4C3(C)C)c2)C1 (single isomer, unassigned; (-)) [Example 11, (−)-5-chloro-3,3-dimethyl-2-[5-[(3S or 3R)-1-propan-2-ylsulfonylpyrrolidin-3-yl]pyridin-3-yl]isoindol-1-one] | 7 | 601
3 | CC1(C)c2cc(Cl)ccc2C(=O)N1c1cncc(C2CCN(S(=O)(=O)C3CC3)C2)c1 (single isomer, unassigned; (-)) [Example 13, (−)-5-chloro-2-[5-[(3S or 3R)-1-cyclopropylsulfonylpyrrolidin-3-yl]pyridin-3-yl]-3,3-dimethylisoindol-1-one] | 19 | 957
4 | CCC(=O)N1CCC(c2cncc(N3C(=O)c4ccc(Cl)cc4C3(C)C)c2)CC1 [Example 1, 5-Chloro-3,3-dimethyl-2-[5-(1-propanoylpiperidin-4-yl)pyridin-3-yl]isoindol-1-one] | 5 | 238
5 | CCS(=O)(=O)N1CCC(c2cncc(N3C(=O)c4ccc(Cl)cc4C3(C)C)c2)CC1 [Example 2, 5-Chloro-2-[5-(1-ethylsulfonylpiperidin-4-yl)pyridin-3-yl]-3,3-dimethylisoindol-1-one] | 2 | 290
6 | CCS(=O)(=O)N1CCC(c2cncc(N3C(=O)c4ccc(Cl)cc4C3(C)C)c2)C1 (centres unmarked) [Example 7, 5-Chloro-2-[5-(1-ethylsulfonylpyrrolidin-3-yl)pyridin-3-yl]-3,3-dimethylisoindol-1-one] | 2 | 149
7 | CC(C)S(=O)(=O)N1CCC(c2cncc(N3C(=O)c4ccc(Cl)cc4C3(C)C)c2)CC1 [Example 16, 5-Chloro-3,3-dimethyl-2-[5-(1-propan-2-ylsulfonylpiperidin-4-yl)pyridin-3-yl]isoindol-1-one] | 4 | 1190
8 | CC1(C)c2cc(Cl)ccc2C(=O)N1c1cncc(C2CCN(C(=O)c3ncccc3Cl)CC2)c1 [Example 20, 5-Chloro-2-[5-[1-(3-chloropyridine-2-carbonyl)piperidin-4-yl]pyridin-3-yl]-3,3-dimethylisoindol-1-one] | 8 | 488
9 | CCS(=O)(=O)N1CCC(F)(c2cncc(N3C(=O)c4ccc(Cl)cc4C3(C)C)c2)CC1 [Example 30, 5-Chloro-2-[5-(1-ethylsulfonyl-4-fluoropiperidin-4-yl)pyridin-3-yl]-3,3-dimethylisoindol-1-one] | 1 | 153
10 | CC(=O)N1CC(c2cncc(N3C(=O)c4ccc(Cl)cc4C3(C)C)c2)C1 [Example 33, 2-[5-(1-Acetylazetidin-3-yl)pyridin-3-yl]-5-chloro-3,3-dimethylisoindol-1-one] | 148 | 4550

The remaining molecules from weak to strong by EC50 [1], led by results:

Row | EC50 [1] [nM] | EC50 [2] [nM] | Compound
11 | 97 | 949 | Cc1ccncc1C(=O)N1CCC(c2cncc(N3Cc4cc(Cl)ccc4C3=O)c2)CC1 [Example 23, 5-Chloro-2-[5-[1-(4-methylpyridine-3-carbonyl)piperidin-4-yl]pyridin-3-yl]-3H-isoindol-1-one]
12 | 84 | 7340 | CC(C)S(=O)(=O)N1CCC(c2cncc(N3Cc4cc(Cl)ccc4C3=O)c2)CC1 [Example 22, 5-Chloro-2-[5-(1-propan-2-ylsulfonylpiperidin-4-yl)pyridin-3-yl]-3H-isoindol-1-one]
13 | 25 | 1050 | CCS(=O)(=O)N1CCC(c2cncc(N3Cc4cc(Cl)ccc4C3=O)c2)CC1 [Example 21, 5-Chloro-2-[5-(1-ethylsulfonylpiperidin-4-yl)pyridin-3-yl]-3H-isoindol-1-one]
14 | 21 | 1340 | CC1(C)c2cc(Cl)ccc2C(=O)N1c1cncc(C2CCN(C(=O)c3ccncc3Cl)CC2)c1 [Example 19, 5-Chloro-2-[5-[1-(3-chloropyridine-4-carbonyl)piperidin-4-yl]pyridin-3-yl]-3,3-dimethylisoindol-1-one]
15 | 16 | 219 | Cc1ccncc1C(=O)N1CCC(c2cncc(N3C(=O)c4ccc(Cl)cc4C3(C)C)c2)CC1 [Example 18, 5-Chloro-3,3-dimethyl-2-[5-[1-(4-methylpyridine-3-carbonyl)piperidin-4-yl]pyridin-3-yl]isoindol-1-one]
16 | 7 | 616 | CCS(=O)(=O)N1CC(c2cncc(N3C(=O)c4ccc(Cl)cc4C3(C)C)c2)C1 [Example 32, 5-Chloro-2-[5-(1-ethylsulfonylazetidin-3-yl)pyridin-3-yl]-3,3-dimethylisoindol-1-one]
17 | 6 | 605 | CCS(=O)(=O)N1CCCC(c2cncc(N3C(=O)c4ccc(Cl)cc4C3(C)C)c2)C1 (centres unmarked) [Example 4, 5-Chloro-2-[5-(1-ethylsulfonylpiperidin-3-yl)pyridin-3-yl]-3,3-dimethylisoindol-1-one]
18 | 4 | 232 | CC(C)S(=O)(=O)N1CCC(F)(c2cncc(N3C(=O)c4ccc(Cl)cc4C3(C)C)c2)C1 (centres unmarked) [Example 14, 5-Chloro-2-[5-(3-fluoro-1-propan-2-ylsulfonylpyrrolidin-3-yl)pyridin-3-yl]-3,3-dimethylisoindol-1-one]
19 | 3 | 1000 | CC1(C)c2cc(Cl)ccc2C(=O)N1c1cncc(C2CCN(S(=O)(=O)C3CC3)CC2)c1 [Example 17, 5-Chloro-2-[5-(1-cyclopropylsulfonylpiperidin-4-yl)pyridin-3-yl]-3,3-dimethylisoindol-1-one]
20 | 2 | 53 | CC1(C)c2cc(Cl)ccc2C(=O)N1c1cncc(C2CCN(S(C)(=O)=O)CC2)c1 [Example 3, 5-Chloro-3,3-dimethyl-2-[5-(1-methylsulfonylpiperidin-4-yl)pyridin-3-yl]isoindol-1-one]
21 | 1.5 | 772 | CC(C)S(=O)(=O)N1CCC(F)(c2cncc(N3C(=O)c4ccc(Cl)cc4C3(C)C)c2)CC1 [Example 31, 5-Chloro-2-[5-(4-fluoro-1-propan-2-ylsulfonylpiperidin-4-yl)pyridin-3-yl]-3,3-dimethylisoindol-1-one]
22 | 1 | 239 | CCCS(=O)(=O)N1CCC(c2cncc(N3C(=O)c4ccc(Cl)cc4C3(C)C)c2)CC1 [Example 15, 5-Chloro-3,3-dimethyl-2-[5-(1-propylsulfonylpiperidin-4-yl)pyridin-3-yl]isoindol-1-one]
